Key:
Format in all cases: cell-based
[1] = system: SK-MEL-28 (melanoma); test: In vitro cell proliferation assay (SRB), SK-MEL-28; conditions: Homo sapiens, SRB method, 96 hours, read-out: Inhibition of cell growth (IC50, μM) SK-MEL-28
Procedure: (§1) Cancer cell lines to determine the effect of 5, 6, or 7-substituted-3-(hetero)arylisoquinolinamine compounds were obtained from the following sources: Human MDA-MB-231 (breast), PC3 (prostate), HCT-15 (colon), HCT116 (colon), OVCAR-3 (ovary), Caki-1 (kidney), PANC-1 (pancreas), SNB-19 (glioblastoma) and SK-MEL-28 (melanoma) from the American Type Culture Collection (ATCC) (Manassas, Va.). PC3, OVCAR-3, SK-MEL-28 and SNB-19 were grown in RPMI1640 medium (Invitrogen, Carlsbad, Calif.) supplemented with 10% fetal bovine serum (“FBS”), 1 mM sodium pyruvate, 10 mM HEPES and 100 U/ml penicillin and 100 μg/ml streptomycin (“P/S”). MDA-MB-231, Caki-1, HCT-15 (colon) and PANC-1 cells were maintained in Dulbecco's modified Eagle's medium (“DMEM”, Invitrogen) supplemented with 10% FBS, P/S and 10 mM HEPES. HCT116 cells were maintained in DMEM supplemented with 10% FBS, P/S and 10 mM HEPES for in vitro cell proliferation assay and in RPMI1640 medium supplemented with 10% FBS, 1 mM sodium pyruvate, 10 mM HEPES and P/S for in vitro cell cycle analysis. All cells were incubated at 37° C. under humidified 5% CO2.
(§2) The growth inhibition of the 5, 6, or 7-substituted-3-(hetero)arylisoquinolinamine derivatives against a variety of human tumor cells was evaluated to study the relative importance of particular substituent groups on the compounds. The 5, 6, or 7-substituted-3-(hetero)arylisoquinolinamine derivatives, prepared as described above, were tested with DMSO as a control.
(§3) The growth inhibition assay of representative 5, 6, or 7-substituted-3-(hetero)arylisoquinolinamine derivatives against human tumor cell lines was performed using the Sulforhodamine B (“SRB”) method (Skehan et al., J. National Cancer Institute, 82: 1107-1112 (1990)). Briefly, exponentially growing tumor cells were seeded into a 96-well plate at a density of 2-3×10^3 cells/well and treated with 5, 6, or 7-substituted-3-(hetero)arylisoquinolinamine compounds the next day. Triplicate wells were used for each treatment. The cells were incubated with the various compounds for 96 hours at 37° C. in a humidified 5% CO2 atmosphere. After 96-hour incubation, cells were fixed with 10% trichloroacetic acid (“TCA”), incubated for 1 hour at 4° C., and washed 3 times with tap water. Subsequently, cells were stained with 0.4% sulforhodamine B in 1% acetic acid for 30 minutes, washed 4 times with 1% acetic acid, and air-dried again. After 5 minutes agitation in 10 mM Tris solution, the absorbance of each well was measured at 530 nm using Benchmark Plus Microplate reader (Bio-Rad Laboratories, Hercules, Calif.).
(§4) To translate the OD530 values into the number of live cells in each well, the OD530 values were compared to those on standard OD530-versus-cell number curves generated for each cell line. The percent survival was calculated using the formula: % Survival=live cell number [test]/live cell number [control]×100
(§5) The IC50 values were calculated by non-linear regression analysis.

[2] = system: OVCAR-3 (ovary); test: In vitro cell proliferation assay (SRB), OVCAR3; conditions: Homo sapiens, SRB method, 96 hours, read-out: Inhibition of cell growth (IC50, μM) OVCAR3
Procedure: as §1, §2, §3, §4, §5

[3] = system: PC3 (prostate); test: In vitro cell proliferation assay (SRB), PC3; conditions: Homo sapiens; SRB method, 96 hours; read-out: Inhibition of cell growth (IC50, μM) PC3
Procedure: as §1, §2, §3, §4, §5

[4] = system: PANC-1 (pancreas); test: In vitro cell proliferation assay (SRB), PANC-1; conditions: Homo sapiens, SRB method, 96 hours, read-out: Inhibition of cell growth (IC50, μM) PANC-1
Procedure: as §1, §2, §3, §4, §5

[5] = system: MDA-MB-231 (breast); test: In vitro cell proliferation assay (SRB), MDA-MB-231; conditions: Homo sapiens, SRB method, 96 hours, read-out: Inhibition of cell growth (IC50, μM) MDA-MB-231
Procedure: as §1, §2, §3, §4, §5

[6] = system: HCT116 (colon); test: In vitro cell proliferation assay (SRB), HCT116; conditions: Homo sapiens, HCT-116; SRB method, 96 hours; Table 3; read-out: Inhibition of cell growth (IC50, μM) HCT116
Procedure: as §1, §2, §3, §4, §5

[7] = system: human cancer cell lines; test: Growth inhibition against the panel of human tumor cell lines (SRB), overall statements; conditions: Table 3 cell lines
Procedure: as §1, §2, §3, §4, §5
Using QSAR and medicinal chemistry techniques, a large number of compounds, including the compounds shown in Table 1-2 above, were synthesized. The synthesized compounds were screened against at least four cancer cell lines, PANC-1, MDA-MB-231, HCT116 and Caki-1, at approximately 1 μM concentration. Compounds showing activity in at least one of these cell lines were selected for further screening. From these compounds, thirty compounds were selected for further evaluation as broad-spectrum anti-proliferative agents as shown in the following Table 3.

[8] = system: SNB-19 (glioblastoma); test: In vitro cell proliferation assay (SRB), SNB19; conditions: Homo sapiens, SRB method, 96 hours, read-out: Inhibition of cell growth (IC50, μM) SNB19
Procedure: as §1, §2, §3, §4, §5

[9] = system: Caki-1 (kidney); test: In vitro cell proliferation assay (SRB), Caki-1; conditions: Homo sapiens, SRB method, 96 hours, read-out: Inhibition of cell growth (IC50, μM) Caki-1
Procedure: as §1, §2, §3, §4, §5

SMILES	IC50 [1] [µM]	IC50 [2] [µM]	IC50 [3] [µM]	IC50 [4] [µM]	IC50 [5] [µM]	IC50 [6] [µM]	IC50 [8] [µM]	activity in growth inhibition of human cancer cell compared to Compound 23 [7]	IC50 [9] [µM]
Cc1ccc2c(N)nc(-c3c(C)cccc3C)cc2c1 [Compound 34, 6-Methyl-3-(2,6-dimethylphenyl)isoquinolin-1-amine]	0.23	0.16	0.24	0.21	0.14	0.17	0.24	equal or better activity	0.12
COc1ccc(-c2cc3cc(C)ccc3c(N)n2)c(C)c1 [Compound 31, 3-(4-Methoxy-2-methylphenyl)-6-methylisoquinolin-1-amine]	0.29	0.17	0.25	0.24	0.15	0.17	0.28	equal or better activity	0.12
COc1cccc(-c2cc3cc(N(C)C)ccc3c(N)n2)c1 [Compound 21, 3-(3-Methoxyphenyl)-N^6,N^6-dimethyl-isoquinoline-1,6-diamine]	0.11	0.071	0.19	0.11	0.059	0.064	0.094	equal or better activity	0.068
Cc1ccc(Cl)cc1-c1cc2ccc(Cl)cc2c(N)n1 [Compound 10, 7-chloro-3-(5-chloro-2-methylphenyl)isoquinolin-1-amine]	0.14	0.071	0.26	0.17	0.11	0.14	0.19	equal or better activity	0.15
COc1ccc(-c2cc3ccc(N(C)C)cc3c(N)n2)cc1OC.Cl [Compound 15, 3-(3,4-Dimethoxyphenyl)-N^7,N^7-dimethylisoquinoline-1,7-diamine hydrochloride]	0.33	0.14	0.23	0.19	0.15	0.18	0.25	equal or better activity	0.17
COc1cccc(-c2cc3cc(C)ccc3c(N)n2)c1 [Compound 25, 3-(3-Methoxyphenyl)-6-methylisoquinolin-1-amine]	0.34	0.18	0.25	0.31	0.14	0.19	0.29	equal or better activity	0.13
Cc1ccc2c(N)nc(-c3ccc4c(c3)OCO4)cc2c1 [Compound 28, 3-(Benzo[d][1,3]dioxol-6-yl)-6-methylisoquinolin-1-amine]	0.22	0.16	0.19	0.22	0.13	0.16	0.23	equal or better activity	0.11

Second part, led by results:

IC50 [1] [µM]	IC50 [2] [µM]	IC50 [3] [µM]	IC50 [4] [µM]	IC50 [5] [µM]	IC50 [6] [µM]	IC50 [8] [µM]	SMILES	activity in growth inhibition of human cancer cell compared to Compound 23 [7]	IC50 [9] [µM]
0.42	0.23	0.25	0.37	0.15	0.18	0.38	Cc1ccc2cc(-c3ccc4c(c3)OCO4)nc(N)c2c1 [Compound 45, 3-(Benzo[d][1,3]dioxol-6-yl)-7-methylisoquinolin-1-amine]	equal or better activity	0.13
0.21	0.13	0.2	0.18	0.079	0.12	0.2	COc1ccc(-c2cc3ccc(C)cc3c(N)n2)c(C)c1 [Compound 42, 3-(4-Methoxy-2-methylphenyl)-7-methylisoquinolin-1-amine]	equal or better activity	0.065
0.25	0.15	0.22	0.2	0.15	0.18	0.21	Cc1ccc(-c2cc3cc(C)ccc3c(N)n2)cc1 [Compound 36, 6-Methyl-3-p-tolylisoquinolin-1-amine]	equal or better activity	0.16
0.23	0.074	0.18	0.19	0.14	0.16	0.22	COc1cccc(-c2cc3cc(OC)c(OC)cc3c(N)n2)c1 [Compound 52, 6,7-Dimethoxy-3-(3-methoxyphenyl)isoquinolin-1-amine]	equal or better activity	0.17
0.051	0.042	0.07	0.058	0.03	0.042	0.052	COc1ccc(C)c(-c2cc3ccc(C)cc3c(N)n2)c1 [Compound 50, 3-(5-Methoxy-2-methylphenyl)-7-methyl-isoquinolin-1-amine]	equal or better activity	0.047
